# Assays:
# [1] = tested on: mouse activated CD8 T cells; test: Tcm differentiation and activation markers of stimulated mouse CD8 T cells (flow cytometry); type: cell-based
# Protocol: 8) Stimulation of Mouse CD8 T Cells
# 2 μg/ml of 145-2C11 Hamster anti-Mouse CD3e in 300 μl of PBS are plated in 24 flat bottom well non-TC treated plates. Incubate O/N at 4° C. CD8 T cells from spleens of 8-12 weeks old OT-1 transgenic mice are isolated. 4×10^5 cells/ml are counted and resuspended in complete RPMI (RPMI+10% FBS heat inactivated at 55° C. for 45 min+Pen/Strep+55 μM β-Mercaptoethanol). The following 2× solutions are prepared:
# a. Anti-Mouse CD28 10 μg/ml 40 U/ml rmIL-2. (40 ml)
# 0.5 ml of 2× solution is added to the corresponding wells. Incubate for 4-8 days. Every 2 days add inhibitor to the corresponding concentration. When the cells are confluent, expand to 6 cm tissue culture plates adding 4 ml of complete RPMI+20 U/ml of IL-2 and in b add 10 μM K884.
# Calculate the specific cell lysis as follows: Specific cell lysis=((Sample−BF)/(AF−BF))×100 10) Flow Cytometry 1. Cell Activation • a. Wash cells with 1 ml of culture medium; • b. Centrifuge cells for 5 min at 300 g; • c. Resuspend cells in culture medium; • d. Prepare 2× solutions (negative control with only culture medium, Positive condition with 50 ng/mL of PMA and 500 ng/mL of lonomycin); • e. Plate 100 μL of cell suspension in 96 well plates (U-bottom); • f. Add 100 μL of 2× solutions in appropriate wells; • g. Incubate 4 hours at 37 C, 5% CO2. 2. Extracellular Staining • a. Record cell quantity transfers per tube; • b. Wash cells with 1 mL of PBS+2% FBS; • c. Centrifuge cells for 5 min at 300 g; • d. Empty tubes by inversion; • e. Add the antibodies for extracellular staining; • f. Incubate 20 min at 4° C.; • g. Wash cells with 1 mL of PBS+2% FBS; • h. Centrifuge cells for 5 min at 300 g; • i. Empty tubes by inversion; • j. Ressuspend cells in 100 μL fixation/permeabilisation buffer (eBioscience, #00-5223-56, 1 volume of concentrate buffer+3 volumes of diluent buffer) • k. Incubate 30 min at room temperature or overnight at 4° C. 3. Intracellular Staining • a. Wash cells with 1 mL of permeabilization buffer (eBioscience, #00-8333-56, dilution 1/10 in ddH2O); • b. Centrifuge cells for 5 min at 300 g; • c. […]
# human T cells = test: Treatment of human T cells with K884: central memory differentiation and cytokine production; type: cell-based
# Protocol: Calculate the specific cell lysis as follows: Specific cell lysis=((Sample−BF)/(AF−BF))×100 10) Flow Cytometry 1. Cell Activation • a. Wash cells with 1 ml of culture medium; • b. Centrifuge cells for 5 min at 300 g; • c. Resuspend cells in culture medium; • d. Prepare 2× solutions (negative control with only culture medium, Positive condition with 50 ng/mL of PMA and 500 ng/mL of lonomycin); • e. Plate 100 μL of cell suspension in 96 well plates (U-bottom); • f. Add 100 μL of 2× solutions in appropriate wells; • g. Incubate 4 hours at 37 C, 5% CO2. 2. Extracellular Staining • a. Record cell quantity transfers per tube; • b. Wash cells with 1 mL of PBS+2% FBS; • c. Centrifuge cells for 5 min at 300 g; • d. Empty tubes by inversion; • e. Add the antibodies for extracellular staining; • f. Incubate 20 min at 4° C.; • g. Wash cells with 1 mL of PBS+2% FBS; • h. Centrifuge cells for 5 min at 300 g; • i. Empty tubes by inversion; • j. Ressuspend cells in 100 μL fixation/permeabilisation buffer (eBioscience, #00-5223-56, 1 volume of concentrate buffer+3 volumes of diluent buffer) • k. Incubate 30 min at room temperature or overnight at 4° C. 3. Intracellular Staining • a. Wash cells with 1 mL of permeabilization buffer (eBioscience, #00-8333-56, dilution 1/10 in ddH2O); • b. Centrifuge cells for 5 min at 300 g; • c. Empty tubes by inversion; • d. Add the intracellular antibodies; • e. Incubate 1 hour at 4° C.; • f. Wash cells with 1 mL of permeabilization buffer; • g. Centrifuge cells for 5 min at 300 g; • h. Empty tubes by inversion; • i. Keep tubes at 4° C. shelter from light 4. Human PBMC Isolation by Ficoll • a. Prepare 50 ml tubes; • b. Transfer blood into 50 ml tubes, with maximum of 17.5 ml per tube; • c. Add sterile PBS to dilute blood to reach 35 ml; • d. Use a dropped-in Pasteur pipet used as a tunnel; add 15 ml of Ficoll; • e. Gently install the tubes and centrifuge at 1000 g for 20 min, RT without brakes; • f. Using a 25 ml pipet, harvest the interface ring of PBMC without too much Ficoll and transfer into a 50 ml tube (maximum 15 ml per tube); • g. […]
# [2] = 14 days with IL-7 and IL-15, restimulated with PMA and Ionomycin 4 hours
smiles,measurement,setting,value
"CCOC(=O)c1cc2cc(C(F)(F)P(=O)(O)O)c(Br)cc2s1 [Ex. 1, ((6-BROMO-2-(ETHOXYCARBONYL)BENZO[B]THIOPHEN-5-YL)DIFLUOROMETHYL)PHOSPHONATE]","expression of IL-2 receptor alpha (CD25), fluorescence","[1]; activated mouse CD8 cells, Tcm gate, compared to untreated",increase on fluorescence closer to one order of magnitude
same,percentage of Tcm population relative to cells with IL-15 alone,[1]; followed by 5 days incubation with recombinant murine IL-15,~2 times
same,differentiation into Tcm cells (CD62Lhigh-CD27high),"[1]; mouse activated CD8 T cells, compared to untreated cells",increased differentiation into Tcm cells at higher rates than the observed in untreated cells
same,TNFα secretion,human T cells; [2],enhancement of the proinflammatory cytokine TNFα secretion
same,production of IFNγ,human T cells; [2],production of IFNγ is maintained
same,response of peripheral blood human CD8 T cells to treatment,human T cells; human CD8 T cells compared to mouse CD8 T cells,respond in equivalent manner to mouse CD8 T cells

# Source: patent US11597739B2, “Enhancing CD8+ T cells for adoptive T cell therapy by inhibiting PTPN1 (PTP1B) and PTPN2 (TC-PTP)” (The Royal Institution for the Advancement of …, priority 2017, dated 2023)
